# Assay results from patent US20250163044A1, “COMPOUNDS” (PSYLO PTY LTD, priority 2021, published 2025).
# Columns and labels:
# Type in all cases: cell-based
# 5-HT2A receptor = target: T1, 5-HT2A receptor (Homo sapiens, UniProt P28223); test: FLIPR Ca2+ flux functional assay, agonist activity at 5-HT2A; details: HEK293 cells, Ca2+ flux; for EC50: read-out: 5-HT2A EC50
# T1 construct: host or cells: HEK293
# Procedure: (§1) Activity at 5-HT2A, 5-HT2B and 5-HT2C receptors was determined using a FLIPR Ca2+ flux assay at WuXi AppTec Co. Ltd. (Hong Kong) Discovery Biology Unit according to their standard protocols. Briefly, stably transfected cells expressing the receptor of interest (HEK293 for 5-HT2A and 5-HT2C; CHO-K1 for 5-HT2B) were grown and plated in a 384 well plate and incubated at 37° C. and 5% CO2 overnight. A 250 mM stock solution of probenecid in FLIPR calcium assay buffer (10 mL) was freshly prepared and combined with a fluorescent dye (Fluo-4 Direct) to give a final assay concentration of 2.5 mM. Reference compounds were 4-fold serially diluted and the screening compounds were 3-fold serially diluted in 100% DMSO for 10 points using Agilent Bravo, and 750 nL was added to a 384 well compound plate using Echo along with 30 μL assay buffer. The fluorescent dye was then added to the assay plate along with assay buffer to a final volume of 40 μL. The cell plate was incubated for 50 min at 37° C. and 5% CO2 and placed into the FLIPR Tetra along with the compound plate. 10 μL of references and compounds were then transferred from the compound plate into the cell plate and the fluorescent signal was read.
# 5-HT2B receptor = target: T2, 5-HT2B receptor (Homo sapiens, UniProt P41595); test: FLIPR Ca2+ flux functional assay, agonist activity at 5-HT2B; details: CHO-K1 cells, Ca2+ flux; for EC50: read-out: 5-HT2B EC50
# T2 construct: host or cells: CHO-K1
# Procedure: as §1
# 5-HT2C receptor = target: T3, 5-HT2C receptor (Homo sapiens, UniProt P28335); test: FLIPR Ca2+ flux functional assay, agonist activity at 5-HT2C; details: HEK293 cells, Ca2+ flux; for EC50: read-out: 5-HT2C EC50
# T3 construct: host or cells: HEK293
# T3 sequence (P28335 33-458): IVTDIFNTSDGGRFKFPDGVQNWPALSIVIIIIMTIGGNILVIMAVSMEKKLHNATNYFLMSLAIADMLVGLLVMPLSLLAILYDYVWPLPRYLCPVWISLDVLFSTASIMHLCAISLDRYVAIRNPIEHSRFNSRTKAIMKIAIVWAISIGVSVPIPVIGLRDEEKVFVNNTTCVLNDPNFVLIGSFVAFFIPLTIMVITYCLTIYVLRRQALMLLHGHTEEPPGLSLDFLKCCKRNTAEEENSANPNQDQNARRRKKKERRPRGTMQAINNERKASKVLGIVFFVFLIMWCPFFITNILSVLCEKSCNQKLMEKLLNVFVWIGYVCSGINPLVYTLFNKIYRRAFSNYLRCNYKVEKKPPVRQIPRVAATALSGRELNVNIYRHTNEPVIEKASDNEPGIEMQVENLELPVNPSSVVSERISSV
# Procedure: as §1
# T2 sequence (P41595 whole entry): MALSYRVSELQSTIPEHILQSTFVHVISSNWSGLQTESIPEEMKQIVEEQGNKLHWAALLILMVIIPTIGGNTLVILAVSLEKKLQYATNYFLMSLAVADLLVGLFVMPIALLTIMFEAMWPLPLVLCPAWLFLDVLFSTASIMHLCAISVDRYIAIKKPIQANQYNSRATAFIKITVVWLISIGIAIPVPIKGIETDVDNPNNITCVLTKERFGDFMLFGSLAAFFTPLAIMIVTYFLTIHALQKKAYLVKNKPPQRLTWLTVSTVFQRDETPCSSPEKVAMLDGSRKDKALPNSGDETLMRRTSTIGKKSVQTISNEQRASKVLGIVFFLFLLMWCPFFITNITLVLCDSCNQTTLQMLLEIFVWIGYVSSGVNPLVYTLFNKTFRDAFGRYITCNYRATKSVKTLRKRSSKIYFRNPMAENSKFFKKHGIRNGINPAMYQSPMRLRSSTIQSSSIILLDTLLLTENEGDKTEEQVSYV
# T1 sequence (P28223 whole entry): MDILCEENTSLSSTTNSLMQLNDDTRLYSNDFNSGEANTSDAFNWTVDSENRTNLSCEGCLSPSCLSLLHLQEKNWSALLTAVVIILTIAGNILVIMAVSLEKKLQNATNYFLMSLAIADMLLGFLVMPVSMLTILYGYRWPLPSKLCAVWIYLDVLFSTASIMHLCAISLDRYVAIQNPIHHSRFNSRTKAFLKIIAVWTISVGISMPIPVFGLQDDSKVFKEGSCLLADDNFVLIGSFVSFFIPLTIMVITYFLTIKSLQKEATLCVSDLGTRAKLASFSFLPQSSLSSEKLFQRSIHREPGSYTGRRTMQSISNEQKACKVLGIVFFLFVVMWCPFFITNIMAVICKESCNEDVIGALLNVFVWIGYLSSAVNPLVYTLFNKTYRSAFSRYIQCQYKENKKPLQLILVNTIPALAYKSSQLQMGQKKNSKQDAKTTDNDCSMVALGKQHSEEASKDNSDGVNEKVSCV
SMILES,Emax (5-HT2A receptor),EC50 (5-HT2A receptor),Emax (5-HT2B receptor),EC50 (5-HT2B receptor),Emax (5-HT2C receptor),EC50 (5-HT2C receptor)
"CCCN(CCC)CCc1c[nH]c2ccnc(OC)c12 [Example P-35, N,N-dipropyl-2-(4-methoxy-1H-pyrrolo[3,2-c]pyridin-3-yl)ethan-1-amine]",82.2%,0.079 µM,74.7%,0.0785 µM,55.6%,7.18 µM
"COc1nccc2[nH]cc(CCN(C(C)C)C(C)C)c12 [Example P-36, N,N-diisopropyl-2-(4-methoxy-1H-pyrrolo[3,2-c]pyridin-3-yl)ethan-1-amine]",114%,0.0771 µM,48.9%,0.0964 µM,38.4%,> 10 µM
"CCN(C)CCc1c[nH]c2ccnc(OC)c12 [Example P-37, N-ethyl-2-(4-methoxy-1H-pyrrolo[3,2-c]pyridin-3-yl)-N-methylethan-1-amine]",82.8%,0.0868 µM,2.6%,> 10 µM,105%,0.533 µM
"COc1nccc2[nH]cc(CCN(C)C(C)C)c12 [Example P-38, N-(2-(4-methoxy-1H-pyrrolo[3,2-c]pyridin-3-yl)ethyl)-N-methylpropan-2-amine]",83.1%,0.0777 µM,19.6%,0.61 µM,70.2%,1.92 µM
"CCN(CC)CCc1n[nH]c2cccc(OC)c12 [Example P-42, 2-(4-methoxy-1H-indazol-3-yl)-N,N-diethylethan-1-amine]",–,2.98 µM,–,> 10 µM,–,3.49 µM
"CCN(CC)CCc1n[nH]c2cccc(O)c12 [Example P-43, 3-(2-(diethylamino)ethyl)-1H-indazol-4-ol]",–,2.18 µM,–,> 10 µM,–,> 10 µM
"CCCN(CCC)CCc1n[nH]c2cccc(OC)c12 [Example P-44, 2-(4-methoxy-1H-indazol-3-yl)-N,N-dipropylethan-1-amine]",–,0.259 µM,–,0.49 µM,–,1.7 µM
"CCCN(CCC)CCc1n[nH]c2cccc(O)c12 [Example P-45, 3-(2-(dipropylamino)ethyl)-1H-indazol-4-ol]",–,0.16 µM,–,> 10 µM,–,> 10 µM
"CCN(CC)CCc1n[nH]c2ccc(OC)cc12 [Example P-48, N,N-diethyl-2-(5-methoxy-1H-indazol-3-yl)ethan-1-amine]",–,6.99 µM,–,> 10 µM,–,> 10 µM
"CCCN(CCC)CCc1n[nH]c2ccc(OC)cc12 [Example P-49, N,N-dipropyl-2-(5-methoxy-1H-indazol-3-yl)ethan-1-amine]",–,1.39 µM,–,> 10 µM,–,> 10 µM
"CCN(C)CCc1n[nH]c2ccc(OC)cc12 [Example P-51, N-ethyl-2-(5-methoxy-1H-indazol-3-yl)-N-methylethan-1-amine]",–,0.526 µM,–,> 10 µM,–,> 10 µM
"COc1ccc2[nH]nc(CCN(C)C(C)C)c2c1 [Example P-52, N-(2-(5-methoxy-1H-indazol-3-yl)ethyl)-N-methylpropan-2-amine]",–,1.84 µM,–,> 10 µM,–,> 10 µM
"COc1cccc2[nH]nc(CCN(C)C)c12 [Example P-55, 2-(4-methoxy-1H-indazol-3-yl)-N,N-dimethylethan-1-amine]",–,0.256 µM,–,> 10 µM,–,0.367 µM
"CN(C)CCc1n[nH]c2cccc(O)c12 [Example P-56, 3-(2-(dimethylamino)ethyl)-1H-indazol-4-ol]",50.5%,0.794 µM,-0.39%,> 10 µM,63.6%,1.26 µM
